Measurements: patent US20230077896A1, “MICROBIAL LIPID PRODUCTION UTILIZING POST-FERMENTATION INDUSTRIAL WASTE STREAM FEEDSTOCKS” (C16 Biosciences, Inc., priority 2020, published 2023)
Where two headings read alike, the source gives them in different places.

Key:
Pantoea agglomerans = conditions: at concentrations of 10 ppm, single inhibitor; cited from earlier work
Fusarium avenaceum = conditions: cited from earlier work
microorganism growth = conditions: tens of micromolar, e.g.; cited from earlier work
R. toruloides strain A = experiment: 4-hydroxybenzaldehyde spike-in titration in YPG media, R. toruloides; type: cell-based, Rhodosporidium toruloides
[1] = system: Y. lipolytica strain poll g; experiment: 4-hydroxybenzaldehyde spike-in titration in YPG media, Y. lipolytica; type: cell-based, Yarrowia lipolytica; conditions: concentrations tested 1 μM-100 mM
Trichosporon cutaneuin = conditions: Wang et al. 2016; cited from earlier work
[2] = system: Rhodosporidium toruloides; conditions: Hu et al. 2009; cited from earlier work
Trichophyton rubrum = conditions: Kamp et al., Mycoses 2005; cited from earlier work
[3] = system: ethanol-producing yeast and bacteria; conditions: as low as; cited from earlier work
Aspergillus fumigatus = conditions: Ryan et al. 2011; cited from earlier work
[4] = system: Pseudoperonospora cubensis; conditions: Zhu et al. 2018; cited from earlier work
S. cerevisiae [5] = experiment: Inhibition of ethanol production by S. cerevisiae (Banergee et al.); type: cell-based, Saccharomyces cerevisiae; conditions: molar conversion in parentheses
Procedure: In some embodiments, the feedstock comprises furfural. Furfural is also known as furan-2-carboxaldehyde, feral, furfuraldehyde, 2-furaldehyde, and pyromucic aldehyde. Within the art, furfural is a well-known and potent inhibitor of microbial fermentation. […] See also, Sitepu et al., “Carbon source utilization and inhibitor tolerance of 45 oleaginous yeast species,” J Ind Microbiol Biotechnol 2014;41(7):1061-1070. In some embodiments, the feedstock comprises at least 10 μM, 20 μM, 30 μM, 40 μM, 50 μM, 60 μM, 70 μM, 80 μM, 90 μM, 100 μM, 200 μM, 300 μM, 400 μM, 500 μM, 600 μM, 700 μM, 800 μM, 900 μM, 1 mM, 2 mM, 3 mM, 4 mM, 5 mM, 6 mM, 7 mM, 8 mM, 9 mM, 10 mM, 20 mM, 30 mM, 40 mM, 50 mM, 60 mM, 70 mM, 80 mM, 90 mM, or 100 mM furfural, or any ranges or subranges therebetween. In some embodiments, the feedstock comprises at least 10 μM furfural.

S. cerevisiae [6] = conditions: cited from earlier work
[7] = system: R. toruloides strain A, R. toruloides strain B; experiment: Batch fermentation with glycerol supplement, R. toruloides; type: cell-based, Rhodosporidium toruloides; conditions: 50 g/L glycerol added to 30% corn stillage syrup feedstock, 6 days
Text: (§1) For the purposes of this example, the exemplary feedstock employed was a 30% corn stillage syrup-based feedstock, comprising 30% v/v corn stillage syrup, with insoluble components removed via centrifugation, diluted in deionized water.
(§2) Four strains of oleaginous microorganisms were selected to investigate the potential of the exemplary feedstock to support the growth of oleaginous microorganisms: R. toruloides strain A, R. toruloides strain B, Y. lipolytica strain po 1 g, and L. starkeyi strain CBS 1807. As a control, a canonical non-oleaginous yeast, P. pastoris strain X33, was included for comparison.
(§3) Fermentations were run in batch format for 6 days. Dry cell weight, oil titer and lipid content were evaluated as described in Example 5.
(§4) 50 g/L glycerol was added to the feedstock and fermentations were again run for 6 days. Dry cell weight and oil titer were evaluated and compared to the results of the batch fermentation.

[8] = system: Y. lipolytica strain po 1 g; experiment: Batch fermentation with glycerol supplement, Y. lipolytica; type: cell-based, Yarrowia lipolytica; conditions: 50 g/L glycerol added to 30% corn stillage syrup feedstock, 6 days
Text: as §1, §2, §3, §4

[9] = system: L. starkeyi strain CBS 1807; experiment: Batch fermentation with glycerol supplement, L. starkeyi; type: cell-based, Lipomyces starkeyi; conditions: 50 g/L glycerol added to 30% corn stillage syrup feedstock, 6 days
Text: as §1, §2, §3, §4

Eutypa lata = conditions: as low as; lowered growth rate even after renewal of culture medium; cited from earlier work
Saccharomyces cerevisiae = conditions: concentrations in the mM range; cited from earlier work

CC1(O)CCOC(=O)C1 (racemic) [mevalonic acid lactone, 4-Hydroxy-4-methyltetrahydro-2H-pyran-2-one]
inhibition of growth of Pantoea agglomerans (Pantoea agglomerans): 10-15% | growth of Fusarium avenaceum (Fusarium avenaceum): inhibit the growth | concentration at which it can act as an inhibitor for microorganism growth (microorganism growth): 67 µM

O=Cc1ccc(O)cc1 [4-hydroxybenzaldehyde]
increase in oil titer as compared to the no inhibitor control (R. toruloides strain A; 100 μM condition): over 50% | increase in oil titer as compared to the no inhibitor control (R. toruloides strain A; 10 mM condition): over 50% | growth (DCW) of the R. toruloides strain (R. toruloides strain A; 100 mM inhibitor in YPG media): inhibited altogether | growth (DCW) of the R. toruloides strain (R. toruloides strain A; all concentrations tested (1 μM-10 mM) except 100 mM, YPG media, vs no inhibitor control): unaffected | effect on oil titer of R. toruloides (R. toruloides strain A; increasing concentrations between 1 μM and 10 mM): lipogenic effect | effect on growth of the Y. lipolytica strain [1]: no statistically significant effect | effect on oil production of the Y. lipolytica strain [1]: no statistically significant effect | concentration showing inhibition of Trichosporon cutaneum (Trichosporon cutaneuin): 16 mM | concentration showing inhibition of Rhodosporidium toruloides [2]: 9 mM

NCC(=O)CCC(=O)O [5-aminolevulinic acid]
concentration showing inhibition of Trichophyton rubrum (Trichophyton rubrum): above 10 mM

O=Cc1ccc(CO)o1 [HMF, 5-(hydroxymethyl)furfural]
concentration of significant inhibition of growth and ethanol production [3]: 8 mM

O=C(O)C(O)Cc1ccc(O)cc1 (centres unmarked) [Hydroxyphenyllactic acid, 2-Hydroxy-3-(p-hydroxyphenyl)propionic acid]
inhibitory concentration (Aspergillus fumigatus): 5 mg/mL

O=C1CC[C@@H](C(=O)O)N1 [Pyroglutamic acid]
inhibitor of fungal species [4]: known inhibitor

O=Cc1ccco1 [furfural]
concentration inhibiting ethanol production (S. cerevisiae [5]; as low as): ~10 mM | concentration of complete inhibition of ethanol production (S. cerevisiae [5]; complete inhibition): ~40 mM | concentration inhibiting ethanol production (S. cerevisiae [6]; as low as): 0.5 g/L | concentration of complete inhibition of ethanol production (S. cerevisiae [6]; complete inhibition): 4 g/L

OCC(O)CO [glycerol]
growth (DCW) with added glycerol vs without [7]: dramatically increased | oil production with added glycerol vs without [7]: dramatically increased | growth (DCW) with added glycerol [8]: significantly less growth | oil titer with added glycerol [8]: only marginally improved | growth (DCW) with added glycerol [9]: significantly less growth | oil titer with added glycerol [9]: only marginally improved

O=C(O)c1ccccc1O [salicylic acid]
inhibitory concentration (Aspergillus fumigatus): 0.25 mg/mL | concentration causing fungistatic effects in Eutypa lata (Eutypa lata): 1 mM | effects against Saccharomyces cerevisiae (Saccharomyces cerevisiae): fungicidal effects
